Read-outs that look alike come from different tables or passages of the source.
Experiments:
[1] = Phase III outcomes trial, cited from earlier work
[2] = anacetrapib with baseline statin therapy compared with patients treated with just a statin; cited from earlier work
[3] = target: T1, endogenous CETP from serum (Homo sapiens, UniProt P11597); assay: RTA assay in 95% human serum (in vitro radioactive assay of CETP-catalyzed CE and TG transfer, endogenous CETP); format: biochemical
T1 construct: yielding a concentration of approximately 15 nM endogenous CETP in the assay; from tissue; host or cells: human serum
T1 sequence (P11597 18-493): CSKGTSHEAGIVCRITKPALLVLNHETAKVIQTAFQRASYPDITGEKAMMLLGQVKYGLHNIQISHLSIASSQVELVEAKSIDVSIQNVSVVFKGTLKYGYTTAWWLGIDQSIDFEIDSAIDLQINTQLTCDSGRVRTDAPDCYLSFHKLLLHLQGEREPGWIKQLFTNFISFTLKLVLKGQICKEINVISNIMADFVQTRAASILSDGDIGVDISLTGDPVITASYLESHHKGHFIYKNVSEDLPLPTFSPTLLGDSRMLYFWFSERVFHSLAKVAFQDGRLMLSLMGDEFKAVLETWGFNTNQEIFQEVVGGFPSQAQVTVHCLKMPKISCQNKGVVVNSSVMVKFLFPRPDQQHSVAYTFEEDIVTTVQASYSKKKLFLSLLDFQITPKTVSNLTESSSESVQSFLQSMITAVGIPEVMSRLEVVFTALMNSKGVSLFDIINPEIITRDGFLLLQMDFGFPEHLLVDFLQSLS
Method: In Vitro Radioactive Assays of CETP-Catalyzed CE and TG Transfer (RTA Assay)
Reagents and sources are: [3H] cholesteryl oleate (GE #TRK.886), [3H] Triolein (Perkin-Elmer NET-431), Butylated hydroxyl toluene (Aldrich, #D4740-4), DOPC (Sigma, # P6354), Sodium Bromide (Fisher scientific #S255-500), PEG 8000 (Fisher, #BP233-1), and human HDL (Intracel Corp #RP-036).
An in vitro assay for determining IC50's to identify compounds that inhibit CETP transfer activity is performed based on a modification of a published method (Morton and Zilversmit, (1981) A plasma inhibitor of triglyceride and cholesteryl ester transfer activities, J. Biol. Chem. 256(23), 11992-11995). The ability of inhibitors to alter CETP activity is performed using two different assays: one using recombinant CETP and one using an endogenous plasma source of CETP. Both assays measure the transfer of [3H] cholesteryl oleate or [3H] triolein from exogenous LDL to HDL.
Radiolabeled donor particles are generated by first combining 100 μl of 200 μM butylated hydroxyl toluene in CHCl3, 216 μL of 21.57 mM DOPC in EtOH, and either 500 μCi [3H]-triolein (Perkin Elmer #NET-431) or 500 μCi [3H]-cholesteryl oleate (GE #TRK886) in a glass tube. Reagents are mixed, dried under nitrogen, and then resuspended in 2 mL of 50 mM Tris, 27 μM EDTA at pH 7.4. After a brief vortex, the solution is sonicated until clear and mixed with 20 mL of fresh human serum. The mixture is incubated overnight at 37° C. The [3H] labeled LDL substrate is separated at 1.063 g/ml density by sequential ultracentrifugal flotation in NaBr according to the method of Havel, Eder, et al., 1955, and Chapman, Goldstein, et al., 1981. Once isolated the particles are dialyzed 3× in CETP buffer (50 mM Tris, pH 7.4, 100 mM NaCl, 1 mM EDTA). Human HDL is purchased from Intracel and used as the acceptor particles.
Transfer assays are performed in a 96-well v-bottom polypropylene plate. For the RTA using recombinant CETP (2% RTA), an assay cocktail is prepared with the final concentrations 128 μg/mL HDL, 20 nM rCETP, 2% human serum, and 1×CETP buffer. 1 μL of each test compound diluted in DMSO is added to 47 μL of assay cocktail per well and incubated at 37° C. for 1 hour. To initiate the transfer reaction, 2 μL radiolabeled LDL is added. After an additional 60 min of incubation at 37° C., the transfer action is terminated by precipitation of LDL with an equal volume of 20% WN PEG 8000. The plates are centrifuged at 2000 rpm for 30 minutes at 4° C. A 40 μL aliquot of the HDL-containing supernatant is transferred to a Packard Optiplate™ with 200 μL of MicroScint™ 20. After mixing, plates are counted by liquid scintillation. Counts present in the supernatant for blanks (wells containing only HDL acceptor, CETP buffer and DMSO) are subtracted from those containing test compounds and used to correct for non-specific transfer.
For the transfer assay using endogenous CETP from serum (95% RTA), the same procedure is used except that human serum is added such that a final concentration of serum of 95% of the total assay volume is achieved, yielding a concentration of approximately 15 nM endogenous CETP in the assay. This is then combined with HDL and CETP buffer and the reaction proceeds as above and is terminated as described.
Comparison of the counts of samples with inhibitors to an uninhibited (DMSO only) positive control yield a percent inhibition. A plot of percent inhibition vs. log of inhibitor concentration, fit to a Sigmoidal 4 parameter equation is used to calculate IC50.
Starting materials are commercially available or are made using known procedures or as shown below. The examples may be synthesized according to the general schemes provided below and by using the synthetic intermediates that are described. The data reported for the examples below were obtained using the RTA assay in 95% human serum.

[4] = torcetrapib and atorvastatin concomitantly compared with atorvastatin alone; cited from earlier work
[5] = read-out: IC50 (nM) RTA with 95% HS

Structure (SMILES): CCC(CC)CC1(C(=O)Nc2ccccc2SC(=O)C(C)C)CCCCC1 [dalcetrapib]
- clinical benefit (interim data) ([1]; terminated early): did not show a clinical benefit
- safety issues [1]: no safety issues detected

Structure (SMILES): COc1cc(F)c(C(C)C)cc1-c1ccc(C(F)(F)F)cc1CN1C(=O)O[C@H](c2cc(C(F)(F)F)cc(C(F)(F)F)c2)[C@@H]1C [anacetrapib]
- decrease of LDL-C [2]: 40%
- increase of HDL-C [2]: 138%

Structure (SMILES): COc1ncc(-c2ccc(C(=O)O)cc2C)cc1-c1ccc(C(F)(F)F)cc1CC1=NO[C@H](c2cc(C(F)(F)F)cc(C(F)(F)F)c2)[C@@H]1C [Example 14, 4-(5-(2-(((4R,5S)-5-(3,5-bis(trifluoromethyl)phenyl)-4-methyl-4,5-dihydroisoxazol-3-yl)methyl)-4-(trifluoromethyl)phenyl)-6-methoxypyridin-3-yl)-3-methylbenzoic acid]
- IC50 [3, 5]: 169 nM

Structure (SMILES): COc1ncc(-c2c(C)cc(C(=O)O)cc2C)cc1-c1ccc(C(F)(F)F)cc1CC1=NO[C@H](c2cc(C(F)(F)F)cc(C(F)(F)F)c2)[C@@H]1C [Example 13, 4-(5-(2-(((4R,5S)-5-(3,5-bis(trifluoromethyl)phenyl)-4-methyl-4,5-dihydroisoxazol-3-yl)methyl)-4-(trifluoromethyl)phenyl)-6-methoxypyridin-3-yl)-3,5-dimethylbenzoic acid]
- IC50 [3, 5]: 343 nM

Structure (SMILES): COc1cc(F)c(-c2ccc(C(=O)O)cc2C)cc1-c1ccc(C(F)(F)F)cc1CC1=NO[C@@H](c2cc(C(F)(F)F)cc(C(F)(F)F)c2)C1 [Example 1B, (R)-2″-((5-(3,5-bis(trifluoromethyl)phenyl)-4,5-dihydroisoxazol-3-yl)methyl)-6′-fluoro-4′-methoxy-2-methyl-4″-(trifluoromethyl)-[1,1′:3′,1″-terphenyl]-4-carboxylic acid]
- IC50 ([3]; read-out: IC50 RTA (95% HS)): 1600 nM

Structure (SMILES): COc1cc(F)c(C(C)C)cc1-c1ccc(C(F)(F)F)cc1CC1=NO[C@H](c2cc(C(F)(F)F)cc(C(F)(F)F)c2)C1 [Example 4, (5S)-5-[3,5-bis(trifluoromethyl)phenyl]-3-{[4′-fluoro-2′-methoxy-5′-(1-methylethyl)-4-(trifluoromethyl)biphenyl-2-yl]methyl}-4,5-dihydroisoxazole]
- IC50 [3, 5]: 1290 nM

Structure (SMILES): CCOC(=O)N1c2ccc(C(F)(F)F)cc2[C@@H](N(Cc2cc(C(F)(F)F)cc(C(F)(F)F)c2)C(=O)OC)C[C@H]1CC [torcetrapib]
- mortality [4]: higher incidence of mortality

Structure (SMILES): COc1ccc(-c2ccc(C(=O)O)cc2C)cc1-c1cnc(C(F)(F)F)cc1CC1=NO[C@H](c2cc(C(F)(F)F)cc(C(F)(F)F)c2)C1 [Example 8, (S)-3′-[4-({5-[3,5-bis(trifluoromethyl)phenyl]-4,5-dihydroisoxazol-3-yl}methyl)-6-(trifluoromethyl)pyridin-3-yl]-4′-methoxy-2-methylbiphenyl-4-carboxylic acid]
- IC50 [3, 5]: 1070 nM

Structure (SMILES): COc1cc(F)c(-c2ccc(C(=O)O)cc2C)cc1-c1ccc(C(F)(F)F)cc1CC1=NO[C@H](c2cc(C(F)(F)F)cc(C(F)(F)F)c2)C1 [Example 1A, (S)-2″-((5-(3,5-bis(trifluoromethyl)phenyl)-4,5-dihydroisoxazol-3-yl)methyl)-6′-fluoro-4′-methoxy-2-methyl-4″-(trifluoromethyl)-[1,1′:3′,1″-terphenyl]-4-carboxylic acid]
- IC50 ([3]; read-out: IC50 RTA (95% HS)): 37 nM

Structure (SMILES): COc1ccc(-c2cc(-c3ccc(C(=O)O)cc3C)cnc2OC)c(CC2=NO[C@H](c3cc(C(F)(F)F)cc(C(F)(F)F)c3)C2)n1 [Example 12, (S)-4-[2′-({5-[3,5-bis(trifluoromethyl)phenyl]-4,5-dihydroisoxazol-3-yl}methyl)-2,6′-dimethoxy-3,3′-bipyridin-5-yl]-3-methylbenzoic acid]
- IC50 [3, 5]: 880 nM

Source: patent US10011572B2, “Monocyclic isoxazolines as inhibitors of cholesterol ester transfer protein” (Merck Sharp & Dohme Corp., priority 2014, dated 2018)
